According to the CheMixHub drug solubility set:

Assay: xn = mol fraction of the nth substance listed, in the solute-free solvent

Cc1ccc2cc(Br)ccc2n1 + CN(C)C=O + O
solubility (g/100 g solution)
Conditions	278.15 K	283.15 K	288.15 K	293.15 K	298.15 K	303.15 K	308.15 K	313.15 K	318.15 K	323.15 K
x2 = 0.02666	0.101	0.115	0.132	0.15	0.17	0.192	0.22	0.251	0.284	0.323
x2 = 0.05806	0.422	0.471	0.529	0.591	0.66	0.737	0.832	0.936	1.05	1.18
x2 = 0.09556	0.867	0.964	1.07	1.19	1.32	1.47	1.66	1.86	2.08	2.34
x2 = 0.1412	1.17	1.3	1.45	1.61	1.79	2	2.27	2.55	2.86	3.23
x2 = 0.1978	1.23	1.39	1.57	1.77	1.98	2.23	2.52	2.87	3.25	3.69
x2 = 0.27	1.27	1.43	1.63	1.85	2.11	2.39	2.74	3.13	3.57	4.1
x2 = 0.3652	1.38	1.58	1.8	2.04	2.31	2.62	2.99	3.45	3.97	4.61
x2 = 0.4965	1.52	1.77	2.05	2.31	2.62	3.01	3.5	4.08	4.7	5.46
x2 = 0.6893	1.67	1.91	2.2	2.61	2.99	3.44	3.98	4.63	5.36	6.25

CC(=O)Oc1cccc2c1C(=O)c1c(OC(C)=O)cc(C(=O)O)cc1C2=O + CC#N + CCO
solubility (g/100 g solution)
Conditions	273.15 K	278.15 K	283.15 K	288.15 K	293.15 K	298.15 K	303.15 K	308.15 K	313.15 K
x2 = 0.1109	0.00681	0.00922	0.0124	0.0163	0.0211	0.0275	0.0344	0.0422	0.0532
x2 = 0.2191	0.0086	0.0114	0.0156	0.0201	0.0251	0.0316	0.0396	0.0497	0.0623
x2 = 0.3248	0.0151	0.02	0.0259	0.032	0.0393	0.0474	0.0557	0.0657	0.0756
x2 = 0.428	0.0245	0.0312	0.039	0.0468	0.0553	0.0655	0.0782	0.0921	0.108
x2 = 0.5288	0.0313	0.0399	0.0509	0.0631	0.0754	0.0896	0.105	0.121	0.139
x2 = 0.6273	0.0353	0.0455	0.0574	0.0703	0.0834	0.0991	0.114	0.13	0.148
x2 = 0.7236	0.0286	0.0372	0.048	0.0598	0.0714	0.0842	0.098	0.113	0.129
x2 = 0.8178	0.0226	0.029	0.0374	0.0457	0.0538	0.0633	0.0742	0.0857	0.101
x2 = 0.9099	0.0216	0.0259	0.0322	0.0392	0.0467	0.0549	0.0647	0.0747	0.0869

CC(=O)Oc1cccc2c1C(=O)c1c(OC(C)=O)cc(C(=O)O)cc1C2=O + CC(=O)N(C)C + O
solubility (g/100 g solution)
Conditions	x2 = 0.02247	x2 = 0.04917	x2 = 0.08143	x2 = 0.1212	x2 = 0.1714	x2 = 0.2368	x2 = 0.3255	x2 = 0.4528	x2 = 0.6506
278.15 K	0.00282	0.0125	0.0358	0.0823	0.255	0.368	0.38	0.452	0.496
283.15 K	0.00402	0.0162	0.0459	0.107	0.313	0.441	0.521	0.622	0.691
288.15 K	0.00537	0.0204	0.0587	0.137	0.374	0.525	0.683	0.821	0.927
293.15 K	0.00727	0.0256	0.0748	0.173	0.444	0.633	0.885	1.07	1.18
298.15 K	0.00929	0.0324	0.0937	0.219	0.532	0.779	1.12	1.35	1.47
303.15 K	0.0112	0.0405	0.119	0.274	0.633	0.95	1.38	1.69	1.81
308.15 K	0.0139	0.0502	0.149	0.343	0.746	1.16	1.7	2.1	2.29
313.15 K	0.0168	0.0643	0.184	0.429	0.862	1.44	2.04	2.54	2.83

CC(=O)Oc1cccc2c1C(=O)c1c(OC(C)=O)cc(C(=O)O)cc1C2=O + CCOC(C)=O + CC(C)O
solubility (g/100 g solution)
Conditions	273.15 K	278.15 K	283.15 K	288.15 K	293.15 K	298.15 K	303.15 K	308.15 K	313.15 K
x2 = 0.07045	0.0064	0.00841	0.0107	0.014	0.0178	0.0215	0.0261	0.0309	0.0362
x2 = 0.1457	0.00881	0.0112	0.0142	0.0177	0.0216	0.0261	0.031	0.0367	0.0431
x2 = 0.2262	0.0102	0.0132	0.0164	0.0199	0.0246	0.0305	0.0368	0.0448	0.0539
x2 = 0.3126	0.0121	0.0158	0.0197	0.0245	0.0299	0.0359	0.0439	0.0522	0.062
x2 = 0.4055	0.0132	0.0175	0.0224	0.0279	0.0338	0.0406	0.0489	0.0583	0.069
x2 = 0.5057	0.0164	0.0205	0.0253	0.0305	0.0368	0.0435	0.0512	0.0598	0.0693
x2 = 0.6141	0.0209	0.026	0.0317	0.0375	0.0445	0.0521	0.0612	0.0702	0.0806
x2 = 0.7318	0.0254	0.0303	0.0368	0.0441	0.0516	0.06	0.0692	0.0796	0.0906
x2 = 0.8599	0.0219	0.0263	0.0318	0.0379	0.0443	0.0515	0.0599	0.0686	0.0779

CN1CCC(N(Cc2cccs2)c2ccccc2)CC1 + CCCO + O
solubility (g/100 g solution)
Conditions	278.15 K	283.15 K	288.15 K	293.15 K	298.15 K	303.15 K	308.15 K	313.15 K	318.15 K	323.15 K
x2 = 0.03225	0.166	0.176	0.187	0.203	0.221	0.243	0.267	0.289	0.318	0.348
x2 = 0.06974	0.411	0.434	0.458	0.492	0.533	0.581	0.632	0.682	0.743	0.808
x2 = 0.1139	0.734	0.774	0.815	0.873	0.943	1.02	1.11	1.2	1.3	1.41
x2 = 0.1666	1.05	1.11	1.18	1.26	1.36	1.48	1.61	1.73	1.88	2.04
x2 = 0.2307	1.32	1.4	1.49	1.6	1.73	1.89	2.06	2.22	2.41	2.62
x2 = 0.3103	1.55	1.66	1.77	1.91	2.08	2.26	2.48	2.69	2.93	3.18
x2 = 0.4117	1.77	1.9	2.04	2.21	2.4	2.63	2.87	3.13	3.45	3.75
x2 = 0.5454	1.97	2.13	2.3	2.5	2.74	3	3.31	3.62	3.96	4.32
x2 = 0.7297	2.09	2.27	2.47	2.7	2.97	3.26	3.62	3.98	4.36	4.77

Cc1ccc2cc(Br)ccc2n1 + CO + O
solubility (g/100 g solution)
Conditions	278.15 K	283.15 K	288.15 K	293.15 K	298.15 K	303.15 K	308.15 K	313.15 K	318.15 K	323.15 K
x2 = 0.05881	0.0126	0.0148	0.0176	0.0206	0.0242	0.0281	0.0331	0.0386	0.045	0.0524
x2 = 0.1233	0.0194	0.0228	0.0268	0.0314	0.0369	0.0428	0.0502	0.0586	0.0682	0.0793
x2 = 0.1942	0.0298	0.0349	0.0409	0.0477	0.056	0.0651	0.0761	0.0886	0.103	0.12
x2 = 0.2727	0.0444	0.052	0.0607	0.0706	0.0828	0.0963	0.112	0.131	0.152	0.177
x2 = 0.3599	0.0588	0.0705	0.0835	0.0981	0.115	0.135	0.156	0.18	0.21	0.245
x2 = 0.4576	0.0792	0.095	0.112	0.133	0.155	0.18	0.21	0.245	0.283	0.331
x2 = 0.5675	0.097	0.117	0.14	0.166	0.195	0.228	0.266	0.311	0.361	0.421
x2 = 0.6923	0.118	0.142	0.169	0.199	0.233	0.272	0.318	0.374	0.436	0.511
x2 = 0.835	0.133	0.159	0.19	0.227	0.27	0.317	0.368	0.429	0.504	0.593
